Results: patent US11571485B2, “Peptides and antibodies for detecting changes in alzheimer's disease brain and methods of use thereof” (Sanford Burnham Prebys Medical Discovery Institute, priority 2016, dated 2023)

Experiments:
[1] = tested on: hippocampus of hAPP-J20 AD and wild-type mice; assay: In vivo CX7C T7 phage library screen, sequencing of phage recovered from hippocampus; parameters: species or system mouse; conditions: 9-month AD mouse vs normal mouse hippocampus
Protocol: In vivo phage screening was conducted using a T7 phage library expressing random peptides with the composition of CXnC (C=cysteine; X=any amino acid; n=7). The mouse model used for this screening is the hAPP-J20 that expresses amyloid precursor protein (APP) with both the Swedish and Indiana mutations (Murrell et al., Science 254, 97-99. (1991); Mullan et al., Nat. Genet. 1, 345-347. (1992)). Peptides homing to the hippocampus of these mice was the focus because the hippocampal region is where the AB-related lesions and damage are most prevalent early on in the disease.
A CX7C phage library was intravenously injected into 9 month-old AD and wild-type (WT) littermate mice, and allowed to circulate for 30 min, after which mice were perfused with saline, brains were collected, and the hippocampal region was dissected and subjected to phage titration and high throughput sequencing of the phage inserts. A surprise result was that the number of phage recovered from the AD hippocampus samples was much higher than the number recovered from a similar screen on normal littermates of the AD mice (FIG. 1A). […] BBB leakage has also been reported in AD patients.
Parallel phage library screens were performed on a normal mouse and a 9-month old AD transgenic mouse (J20 hAPP tg mouse line, which expresses transgenic amyloid precursor protein with two disease-related mutations). The library was intravenously injected into anesthetized mice and the hippocampal area of the brain was collected 30 min after intravenous injection of the library, phage was isolated from the tissue samples and subjected to high throughput sequencing of the peptide-encoding inserts in the phage DNA. Table 1 list most abundantly represented peptide from the two kinds of brains, and all peptides with significant representation in the AD brain and absent or nearly absent in the normal brain are listed in Table 2. Two peptides, CASPRLSKC (SEQ ID NO: 3) and CESPLLSEC (SEQ ID NO: 11), from among the highest scoring ones were subjected to detailed studies as described below.
hAPP-J20 mice were intravenously injected with 1e10 pfu of a CX7C (wherein X is any amino acid) naïve phage library, in 100 μL of PBS. The library was allowed to circulate for 30 minutes, after which mice were anesthetized with 2.5% avertin and perfused with PBS intracardially. The brain was removed and the hippocampus was extracted and homogenized in LB-NP 40 (1%) and phage was processed as described (Teesalu et al., Methods Enzymol 503, 35-56 (2012)). The phages in the lysate were rescued by amplification in E. coli and peptide-encoding portion of the phage genome was sequenced using Ion Torrent high throughput sequencing.

[2] = tested on: P13 model of angiogenic glioblastoma; assay: In vivo homing in P13 glioblastoma model; parameters: species or system mouse; conditions: systemically injected
Protocol: All animal experiments were conducted under an approved protocol of the Institutional Animal Care and Use Committee of Sanford Burnham Prebys Medical Discovery Institute. The following transgenic mouse models were used for peptide homing studies—hAPP-J20 ([…], Nature genetics 1, 345-347 (1992)), Tg2576 (Jacobsen et al., Proc Natl Acad Sci USA 103, 5161-5166 (2006)), and mTHY-1-α-synuclein model (Chesselet et al., Neurotherapeutics 9, 297-314 (2012)). The P13 glioblastoma model is a patient-derived orthotopic xenograft model (Bougnaud et al., Oncotarget, (2016)). Spheroids were cultured as described previously (Bjerkvig et al., J Neurosurg 72, 463-475 (1990)). After two weeks in culture, spheroids (volume 2.5 μl) were stereotactically implanted into the brains of nude mice. Mice were used approximately 6 weeks after tumors were induced, when mice started presenting neurological symptoms. The acute brain injury model was setup as previously described (Mann et al., Nature communications 7, 11980 (2016)). Briefly, 8 to 10 week-old male BL6 mice were anaesthetized with 4% isoflurane in 70% N2O and 30% O2, and a 5-mm craniotomy was performed using a portable drill and a trephine over the right parietotemporal cortex using a stereotactic frame. […]

Sequence: CDAGRKQKC
- Representation in sequenced phage pools, AD versus normal brain [1]: dominated
- Tumor homing [2]: Strong tumor homing
